Measurements taken from patent US20240248101A1 (The United States of America, as represented by the …, priority 2021, published 2024).
Several values for one entry are separate records, joined by “and”; a condition that tells them apart may be missing. Equal values may be shown once.

Experiments:
[1] = Vitamin C renal leak study in men with Fabry disease and healthy male controls (matched fasting plasma and 1 h urine); assay type: in vivo, human; details: for median fractional excretion of vitamin C (FeVC): all subjects
From the text: Study design: This was a non-randomized cross-sectional cohort study aimed at investigating the prevalence and clinical characteristics of vitamin C renal leak in men with Fabry disease and healthy male controls. The protocols were approved by the Institutional Review Boards of NINDS and NIDDK, NIH.
Participants: Men with Fabry disease who were actively participating in NIH protocols evaluating the open label use of enzyme replacement therapy (ERT) in Fabry disease (95-N-0121, 00-N-0185 and 02-N-0220), ClinicalTrials.gov Identifiers: NCT00001491 and NCT00068107) were recruited. The male predominance in Fabry disease is based on the X-linked inheritance pattern. Accordingly, healthy men aged 18-58 were recruited on a rolling basis as controls for the Fabry cohort, under NIH protocol 04-DK-0021 (arm 3). Exclusion criteria included acute or chronic illness, alcohol abuse or tobacco use.
Matched urine and plasma vitamin C measurements: Following an overnight fast, on the morning of study, subjects were instructed to empty their bladder. […] Following the initial spot urine collection, subjects were hospitalized for another 24 hours. They consumed a hospital diet free of supplements or foods items with no or low vitamin C content. On morning of day 2, collection of all voided urine for 24 hours (termed 24 h urine) was obtained and subjects were discharged home.
Primary endpoint was the prevalence of vitamin C renal leak in the Fabry's cohort compared with healthy controls. Renal leak status (leak vs no leak) was determined using criteria described in depletion-repletion studies above. […] To address this limitation, renal leak was also expressed as fractional excretion of vitamin C (FeVC) defined as follows: […]
Following an overnight fast, on the morning of study, subjects were instructed to empty their bladder. […] Subjects could watch TV, read, take naps, or rest in any other way they choose. […]

[2] = Plasma and urine vitamin C in gulo-/- mice given vitamin C in drinking water; assay type: in vivo, mouse; details: gulo-/- mice of both sexes, vitamin C 0 to 5000 mg/L in drinking water
Procedure: Values represent means+/−SDs. All mice were maintained at each dose for one week before blood and urine sampling.
Animal experiments were approved by the Animal Care and Use Committee NIDDK, NIH, and were conducted in accordance with NIH guidelines. Mice were 10-14-week-old males and females with free access to food and water and were maintained on a regular chow diet (NIH-07) without detectable ascorbate (detection limit 10 nM). Mice type were gulo^−/− and SVCT1^−/−. […] To maintain the mice, vitamin C was provided via drinking water, which was changed daily.
Plasma and RBCs were from mouse whole blood as described. Urine was collected at the same time as the blood by gentle abdominal pressure.
Blood and urine samples were collected on ice and processed promptly. All samples were stored at −80 C and assayed together by HPLC as previously described.

[3] = Vitamin C renal leak study in diabetic cohort, nondiabetic controls and healthy subgroup (matched fasting plasma and 1 h urine); assay type: in vivo, human; details: for Plasma Vitamin C Concentration (mean): fasting
Procedure: Vitamin C in plasma and urine was measured using coulometric electrochemical detection with high performance liquid chromatography.
Study design: This was a non-randomized cross-sectional cohort outpatient study aimed at investigating the prevalence and clinical characteristics of vitamin C renal leak in a cohort of individuals with diabetes and non-diabetic controls. The protocol was approved by the Institutional Review Boards of NIDDK, NIH.
Participants and Recruitment: The study included a cohort of diabetic and non-diabetic individuals aged 18-65, without known acute or chronic medical conditions other than complications of diabetes mellitus or metabolic syndrome. Exclusion criteria included presence of an acute or chronic illness, alcohol abuse or tobacco use and pregnancy.
Subjects were also instructed to avoid food or drinks (other than water and medications) after midnight, prior to study sampling day. On morning of study sampling, subjects were admitted to the NIH CRC's metabolic unit as outpatients. They were instructed to empty their bladder. […] Subjects were subsequently provided with a meal and discharged home.
Study Groups and Comparators for Analyses: Three groups of participants who met the inclusion and exclusion criteria were used for data analyses: diabetic cohort, nondiabetic control group and healthy subgroup. The diabetic cohort was comprised of men and women with type 1 or type 2 diabetes. The nondiabetic control group was made up of individuals without diabetes and were not taking any chronic medications. To investigate unknown factors associated with renal leak, related and unrelated to diabetes, the study exclusion criteria was non-restrictive to recruit a broad sampling of the population. Thus, the nondiabetic control group included asymptomatic subjects with abnormal laboratory values which not determined to be clinically significant during the screening evaluation. However, inclusion of individuals with abnormal laboratory values in the non-diabetic control group could confound study findings. To address this concern, a post-hoc healthy subgroup of the nondiabetic control group without abnormal laboratory findings was identified. Primary comparative analysis was between the diabetic group vs nondiabetic control group. The diabetic group was secondarily compared with the healthy subgroup to assess for discordant findings.
This binary criterion is a qualitative measure indicating the presence or absence of a renal leak in a subject. The prevalence of renal leak was calculated as the proportion of leakers in each population cohort.
FeVC is a quantitative measure that describes the degree and magnitude of a renal leak. The formula for calculating FeVC is shown below: […]
Sample collection and vitamin C assay: Urine and plasma vitamin C were analyzed by HPLC with coulometric electrochemical detection. Other blood and urine chemistry measurements were performed, using standard laboratory methods, by the department of laboratory medicine Clinical Laboratory Improvement Amendments (CLIA) identification number: 21D0665373, Clinical Research Center, National Institutes of Health.

[4] = Vitamin C depletion-repletion pharmacokinetic study: renal threshold and minimal elimination threshold (PBPK and PCF modelling); assay type: in vivo, human; details: for vitamin C renal threshold, Population Curve Fitting (PCF): population estimate
Procedure: Renal threshold was estimated using physiology-based pharmacokinetics modeling. […] Mice knockout models were used for proof-of-concept studies. Vitamin C was measured using coulometric electrochemical detection with high performance liquid chromatography.
Pharmacokinetics components of depletion-repletion study design have been described previously (see supplementary methods). The protocol was approved by the Institutional Review Board, National Institutes of Diabetes and Digestive and Kidney diseases (NIDDK), National Institutes of Health (NIH).
Participants, Interventions: Healthy men and women aged 18 to 35 years without any acute or chronic medical conditions. Details on eligibility and study interventions are described in supplementary methods.
Full details regarding studying outcomes and analyses are provided in supplementary methods. […] Each subject had 5-7 oral and intravenous pharmacokinetic studies over a 13-fold or greater dose range. Data from the NIH depletion study in men and women were used to estimate the vitamin C renal threshold by two different methods: physiology-based pharmacokinetics modeling (PBPK), and population curve fitting with empirical functions (PCF). […] Based on data from healthy men, this model facilitated description of pharmacokinetics-time profiles of vitamin C in plasma, urine, and tissues simultaneously. Goodness of fit analyses support the use of this model to data from healthy women. For population curve fitting (PCF), plasma and urine values were analyzed using nonlinear mixed-effect modeling. PCF fits empirical functions to data from all subjects of each sex to estimate the renal threshold for that population of men and women. Using PBPK analyses, minimal elimination threshold (MET) was defined as that plasma concentration 2 standard deviations below the mean renal threshold for men and for women based on guidelines for estimating dietary reference intakes. […] (see supplementary methods).
Because urine samples collected at variable intervals were not synchronized with plasma samples, the time at which vitamin C first appears in the urine or when vitamin C urinary elimination became zero could not be determined from raw data alone. […] Using the data from the NIH depletion repletion study, vitamin C renal threshold was estimated by two different methods: Physiology-Based Pharmacokinetics model (PBPK) and population curve fitting (PCF).
Goodness of fit analysis support the use of the pharmacokinetics model to data collected from 15 normal women. […] When the amount of filtered vitamin C exceeds renal tubular reabsorptive capacity, vitamin C appears in the urine. The point at which renal threshold is reached (when filtration and reabsorption are in equilibrium) can be represented as
The Cplasma that fulfill the above equation is the plasma concentration threshold (renal threshold). At which time, the rate of vitamin C dispense into the tubule equals zero. The equation 2 can be rearranged as
Different non-parametric empirical functions were explored to best describe the combined urine data versus plasma vitamin C value of all subjects. After the structure function (model) was selected using goodness-of-fit assessments, plasma and urine data analyses were finalized using Nonlinear Mixed-Effect (MLME) modeling for population fit with S-Plus for Windows (version 8, Insightful Corp. Seattle, WA) to estimate the parameters account for inter-subject variabilities.
A Michealis-Menten equation (equation 4) was selected and fitted to data to estimate the parameters Vm and KM (maximum rate and Michaelis constant, respectively).
Initial estimate of Vm and KM were obtained by inspecting data plots. Goodness-of-fit was checked by visually inspecting the distribution of Standardized Residuals. If the goodness of fit was not acceptable, the initial parameters (Vm and KM) were changed and the resulting plot inspected again for distribution of residuals. […]

- mean plasma vitamin C concentration ([1]; Fabry cohort and healthy controls after 3-week low vitamin C diet, order of cohorts not stated): 38.9 µM and 36.5 µM
- median fractional excretion of vitamin C (FeVC) ([1]; healthy male controls): 0
- median fractional excretion of vitamin C (FeVC) ([1]; men with Fabry disease): 0.018
- plasma vitamin C concentration below which no vitamin C was found in urine (renal threshold) [2]: 55 µM
- Median FeVC ([3]; Diabetic Cohort, All Subjects): 0.00032
- Median FeVC ([3]; Diabetic Cohort, Plasma Vit C < MET): 0.00015
- Median FeVC ([3]; Diabetic Cohort, Plasma Vit C ≥ MET): 0.0012 and 0.00122
- Plasma Vitamin C Concentration (mean) ([3]; Diabetic Cohort, table part adjusted for sex/gender): 40.9 µM
- Plasma Vitamin C Concentration (mean) ([3]; Diabetic Cohort, un-adjusted for sex/gender): 40.9 µM
- Median FeVC ([3]; Healthy Subgroup, All Subjects): 0.00046
- Median FeVC ([3]; Healthy Subgroup, Plasma Vit C < MET): 0
- Median FeVC ([3]; Healthy Subgroup, Plasma Vit C ≥ MET): 0.00046
- Plasma Vitamin C Concentration (mean) ([3]; Healthy Subgroup, table part adjusted for sex/gender): 57.1 µM
- Plasma Vitamin C Concentration (mean) ([3]; Healthy Subgroup, un-adjusted for sex/gender): 57.1 µM
- Median FeVC ([3]; Non-Diabetic Control, All Subjects): 0.00044
- Median FeVC ([3]; Non-Diabetic Control, Plasma Vit C < MET): 0.0000
- Median FeVC ([3]; Non-Diabetic Control, Plasma Vit C ≥ MET): 0.0010
- Plasma Vitamin C Concentration (mean) ([3]; Non-Diabetic Control, table part adjusted for sex/gender): 53.1 µM
- Plasma Vitamin C Concentration (mean) ([3]; Non-Diabetic Control, un-adjusted for sex/gender): 53.1 µM
- Minimal Elimination Threshold (MET), 2SD below mean renal threshold using PBPK ([4]; healthy men): 38.1 µM
- vitamin C renal threshold, PBPK, Mean (SD) ([4]; healthy men, n = 7): 48.5(5.2) μM
- vitamin C renal threshold, PBPK, Mean (SD) ([4]; healthy men, n = 7, listed as Vitamin C): 48.5 μM and 48.5 (5.2) μM
- vitamin C renal threshold, Population Curve Fitting (PCF) ([4]; healthy men): 48.3 µM and 48.28 µM
- vitamin C renal threshold, Population Curve Fitting (PCF) ([4]; healthy men, listed as Vitamin C): 48.3 µM
- Minimal Elimination Threshold (MET), 2SD below mean renal threshold using PBPK ([4]; healthy women): 43.2 µM
- vitamin C renal threshold, PBPK, Mean (SD) ([4]; healthy women, n = 10): 58.3(7.5) μM
- vitamin C renal threshold, PBPK, Mean (SD) ([4]; healthy women, n = 10, listed as Vitamin C): 58.3 μM and 58.3 (7.5) μM
- vitamin C renal threshold, Population Curve Fitting (PCF) ([4]; healthy women): 60.4 µM and 60.39 µM
- vitamin C renal threshold, Population Curve Fitting (PCF) ([4]; healthy women, listed as Vitamin C): 60.4 µM
Compound: O=C1O[C@H]([C@@H](O)CO)C(O)=C1O [vitamin C]
- vitamin C renal threshold, Pharmacokinetic Modeling (PBPK), individual estimates ([4]; healthy men, individual subjects M1-M7, plasma concentration at which vitamin C first appears in urine): 52 μM and 51 μM and 40 μM and 56 μM and 45 μM (2×) and 50 μM
- vitamin C renal threshold, Pharmacokinetic Modeling (PBPK), individual estimates ([4]; healthy women, individual subjects W1-W10): 54 μM (3×) and 67 μM and 57 μM and 64 μM and 63 μM and 45 μM and 70 μM and 55 μM
